These results are taken from US6313305A, “Cephalosporins” (Hoechst Marion Roussel, priority 1991, dated 2001).

Structures are written as SMILES. In brackets after ≈: the same amount, converted by molar mass. Structures can show the parent of a compound that is named as a salt.

Format in all cases: cell-based
The test system of assay [1] is oracillin-sensitive penicillin-resistants Staphylococci aureus (20 strains). Put plainly: In vitro activity, method of dilutions in solid medium (TABLE II): oracillin-sensitive penicillin-resistant Staphylococcus aureus. Particulars: 24 hours at 37° C. The protocol: (§1) In Vitro Activity, Method of Dilutions in Solid Medium
(§2) A series of dishes was prepared in which an equal amount of sterile nutritional medium was distributed containing increasing amounts of the test product. Then, each dish was seeded with several bacteria strains and after incubation in an oven for 24 hours at 37° C., the growth inhibition was evaluated by the absence of any bacterial development, which allowed the minimal inhibiting concentrations (M.I.C.) to be determined expressed in micrograms/ml. The results were expressed in M.I.C. 90 which is the minimum concentration of antibiotic allowing the growth of the strains studied to be inhibited by […] (TABLE II).

The subject of assay [2] is Enterobacteria producing cephalosporinases (20 strains). Put plainly: In vitro activity, method of dilutions in solid medium (TABLE II): Enterobacteria producing cephalosporinases. Particulars: 24 h. As to the method:
as §1, §2

Assay [3] concerns Enterobacteria producting β lactamase with enlarged spectrum (16 strains). Briefly: In vitro activity, method of dilutions in solid medium (TABLE II): Enterobacteria producing β lactamase with enlarged spectrum. Particulars: 24 h. As to the method: as §1, §2
In assay [4] the test system is Pseudomonas Aeruginosa (39 strains). Briefly: In vitro activity, method of dilutions in solid medium (TABLE II): Pseudomonas aeruginosa. The following applies: 24 hours at 37° C. As to the method: as §1, §2

Consider `Nc1nc(/C(=N/OC(C(=O)O)c2cc(Cl)c(O)c(O)c2Cl)C(=O)N[C@@H]2C(=O)N3C(C(=O)[O-])=C(/C=C/C[n+]4cccc5c4CCC5)CS[C@H]23)cs1` (stereo partly drawn) [Example 27, Internal salt of (6R-(3-(E) 6α, 7β-(Z)))-1-(3-(7-(((2-amino-4-thiazolyl)-(carboxy-(2,5-dichloro-3,4-dihydroxy-phenyl)-methoxy)-imino)-acetamido)-2-carboxy-8-oxo-5-thia-1-azabicyclo[4,2,0]oct-2-en-3-yl)-2-propenyl)-6,7-dihydro-5H-pyrindinium], for which the MIC90 – broadly, an inhibitory concentration at the 90% level, which refers to growth in some studies and to a panel of isolates in others – in assay [1] is 5 µg/mL; in assay [2], 0.3 µg/mL; in assay [3], 10 µg/mL; in assay [4] it was 0.08 µg/mL.
In the same order, the values of `Nc1nc(/C(=N/OC(C(=O)O)c2cc(F)c(O)c(O)c2F)C(=O)N[C@@H]2C(=O)N3C(C(=O)[O-])=C(/C=C/C[n+]4ccn5ccccc54)CS[C@H]23)cs1` (stereo partly drawn) [Example 39, Internal Salt of (6R-(3-(E) 6α, 7β(Z)))-1-(3-(7-(((2-Amino-4-thiazolyl)(carboxy-(2,5-difluoro-3,4-dihydroxyphenyl)-methoxy)-imino)-acetamido)-2-carboxy-8-oxo-5-thia-1-azabicyclo[4,2,0]oct-2-en-3-yl)-2-propenyl)-imidazo(1,2-a)pyridinium] are 2.5 µg/mL, 0.3 µg/mL, 2.5 µg/mL and 0.08 µg/mL.
On the same counts, the results for `COc1cc(C(O/N=C(\C(=O)N[C@@H]2C(=O)N3C(C(=O)[O-])=C(/C=C/C[n+]4cccc5ccccc54)CS[C@H]23)c2csc(N)n2)C(=O)O)c(Cl)c(O)c1O` (stereo partly drawn) [Example 43] are 0.3 µg/mL (≈ 0.391 µM), 2.5 µg/mL (≈ 3.26 µM), 1.2 µg/mL (≈ 1.56 µM) and 1.2 µg/mL (≈ 1.56 µM).
